Results reported in PubChem BioAssay AID2060910 (Molecular Pharmacology Branch, DTP, NCI, 2025).

System: 242566-281-R-J2-PDC complex spheroid viability
Assay: Anticancer human tumor 242566-281-R-J2-PDC patient-derived pancreatic carcinoma cell line growth inhibition [RAS]
Details: for IC50: curve of first compound; for viability, T/C: stronger effect = lower value
Outline: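 Tumour cells grown as complex spheroids with HUVEC endothelial cells and mesenchymal stem cells, treated with RAS pathway inhibitor combinations. Each agent spans half-log steps from near clinical Cmax, or 10 microM where Cmax is unknown.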

[1] = second compound 0.00316 µM, first compound 0.000949 µM
[2] = second compound 0.00316 µM, first compound 0.003 µM
[3] = second compound 0.00316 µM, first compound 0.00949 µM
[4] = second compound 0.00316 µM, first compound 0.03 µM
[5] = second compound 0.00316 µM, first compound 0.0949 µM
[6] = second compound 0.00316 µM, first compound 0.3 µM
[7] = second compound 0.01 µM, first compound 0.000949 µM
[8] = second compound 0.01 µM, first compound 0.003 µM
[9] = second compound 0.01 µM, first compound 0.00949 µM
[10] = second compound 0.01 µM, first compound 0.03 µM
[11] = second compound 0.01 µM, first compound 0.0949 µM
[12] = second compound 0.01 µM, first compound 0.3 µM
[13] = second compound 0.0316 µM, first compound 0.000949 µM
[14] = second compound 0.0316 µM, first compound 0.003 µM
[15] = second compound 0.0316 µM, first compound 0.00949 µM
[16] = second compound 0.0316 µM, first compound 0.03 µM
[17] = second compound 0.0316 µM, first compound 0.0949 µM
[18] = second compound 0.0316 µM, first compound 0.3 µM
[19] = second compound 0.1 µM, first compound 0.000949 µM
[20] = second compound 0.1 µM, first compound 0.003 µM
[21] = second compound 0.1 µM, first compound 0.00949 µM
[22] = second compound 0.1 µM, first compound 0.03 µM
[23] = second compound 0.1 µM, first compound 0.0949 µM
[24] = second compound 0.1 µM, first compound 0.3 µM
[25] = second compound 0.316 µM, first compound 0.000949 µM
[26] = second compound 0.316 µM, first compound 0.003 µM
[27] = second compound 0.316 µM, first compound 0.00949 µM
[28] = second compound 0.316 µM, first compound 0.03 µM
[29] = second compound 0.316 µM, first compound 0.0949 µM
[30] = second compound 0.316 µM, first compound 0.3 µM
[31] = second compound 1 µM, first compound 0.000949 µM
[32] = second compound 1 µM, first compound 0.003 µM
[33] = second compound 1 µM, first compound 0.00949 µM
[34] = second compound 1 µM, first compound 0.03 µM
[35] = second compound 1 µM, first compound 0.0949 µM
[36] = second compound 1 µM, first compound 0.3 µM
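Also: spheroids exposed to compound for 7 days before readout.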
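For viability, T/C in this document: 100% = DMSO vehicle control wells.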

SMILES: CC1(C)CCC(Nc2ncc(C(F)(F)F)c(-c3c[nH]c4c(P(C)(C)=O)c(C#N)ccc34)n2)CN1 (centres undefined) + C=CC(=O)N1CCN(c2nc(OCC3CCCN3C)nc3c(F)c(-c4nc(N)cc(C)c4C(F)(F)F)c(Cl)cc23)C(C)C1
- IC50 (second compound 0.00316 µM): > 300 nM
- IC50 (second compound 0.01 µM): > 300 nM
- IC50 (second compound 0.0316 µM): > 300 nM
- IC50 (second compound 0.1 µM): > 300 nM
- IC50 (second compound 0.316 µM): > 300 nM
- IC50 (second compound 1 µM): > 300 nM
- viability, T/C [1]: 109%
- viability, T/C [2]: 161%
- viability, T/C [3]: 154%
- viability, T/C [4]: 128%
- viability, T/C [5]: 146%
- viability, T/C [6]: 135%
- viability, T/C [7]: 137%
- viability, T/C [8]: 151%
- viability, T/C [9]: 142%
- viability, T/C [10]: 124%
- viability, T/C [11]: 158%
- viability, T/C [12]: 129%
- viability, T/C [13]: 114%
- viability, T/C [14]: 173%
- viability, T/C [15]: 133%
- viability, T/C [16]: 113%
- viability, T/C [17]: 138%
- viability, T/C [18]: 132%
- viability, T/C [19]: 151%
- viability, T/C [20]: 130%
- viability, T/C [21]: 103%
- viability, T/C [22]: 137%
- viability, T/C [23]: 138%
- viability, T/C [24]: 144%
- viability, T/C [25]: 152%
- viability, T/C [26]: 144%
- viability, T/C [27]: 147%
- viability, T/C [28]: 109%
- viability, T/C [29]: 143%
- viability, T/C [30]: 149%
- viability, T/C [31]: 130%
- viability, T/C [32]: 139%
- viability, T/C [33]: 142%
- viability, T/C [34]: 123%
- viability, T/C [35]: 128%
- viability, T/C [36]: 121%

SMILES: CCc1c2c(nc3ccc(O)cc13)-c1cc3c(c(=O)n1C2)COC(=O)[C@]3(O)CC + C=CC(=O)N1CCN(c2nc(OCC3CCCN3C)nc3c(F)c(-c4nc(N)cc(C)c4C(F)(F)F)c(Cl)cc23)C(C)C1
- IC50 (second compound 0.00316 µM): 31.6 nM
- IC50 (second compound 0.01 µM): 34.8 nM
- IC50 (second compound 0.0316 µM): 48.8 nM
- IC50 (second compound 0.1 µM): 34.5 nM
- IC50 (second compound 0.316 µM): 40.9 nM
- IC50 (second compound 1 µM): 50.8 nM
- viability, T/C [1]: 94%
- viability, T/C [2]: 121%
- viability, T/C [3]: 84.4%
- viability, T/C [4]: 51%
- viability, T/C [5]: 27.1%
- viability, T/C [6]: 13.1%
- viability, T/C [7]: 103%
- viability, T/C [8]: 133%
- viability, T/C [9]: 82.4%
- viability, T/C [10]: 56.1%
- viability, T/C [11]: 26.9%
- viability, T/C [12]: 12.3%
- viability, T/C [13]: 112%
- viability, T/C [14]: 132%
- viability, T/C [15]: 83.3%
- viability, T/C [16]: 67.1%
- viability, T/C [17]: 32.3%
- viability, T/C [18]: 11.8%
- viability, T/C [19]: 111%
- viability, T/C [20]: 129%
- viability, T/C [21]: 104%
- viability, T/C [22]: 54%
- viability, T/C [23]: 23.1%
- viability, T/C [24]: 16%
- viability, T/C [25]: 105%
- viability, T/C [26]: 137%
- viability, T/C [27]: 77.1%
- viability, T/C [28]: 63.7%
- viability, T/C [29]: 28.8%
- viability, T/C [30]: 14.7%
- viability, T/C [31]: 104%
- viability, T/C [32]: 114%
- viability, T/C [33]: 86.7%
- viability, T/C [34]: 66%
- viability, T/C [35]: 32.7%
- viability, T/C [36]: 10.9%
